The subject of series [1] is IL-5 production. The experiment in a line: Inhibition of IL-5 production by D10.G4.1 Th2 cells stimulated with conalbumin and antigen presenting cells (IL-5 ELISA). In kind it is cell-based. Particulars: inhibitory effect on IL-5 production; murine Th2 clone D10.G4.1 cells, conalbumin as antigen, 48 hours incubation, IL-5 in supernatant by ELISA. The method, then:
The action on IL-5 production in mice was examined according to the following method as disclosed in […], et al., Immunology Letters, Vol. 34, pp. 297-302 (1992). Murine Th2 clone (D10.G4.1 cells) was purchased from ATCC. Antigen presenting cells were prepared by suspending 1 x 10^7 spleen cells of a 8-week-old female C3H/HeN mice in 5 ml of an RPMI-1640 medium and incubated together with 50 μg/ml of mitomycin C (MMC) at 37°C for 30 minutes and then washed with three 50 ml portions of RPMI-1640. To RPMI-1640 containing 10% bovine serum were added 0.5 U of IL-2 (produced by Genzyme) and 5 x 10^-5 M of 2-mercaptoethanol to prepare a medium for tissue culture. A test compound was dissolved in dimethyl sulfoxide (DMSO) and diluted with the tissue culture medium to have a final DMSO concentration of 0.1% and a varied test compound concentration. In each well of a 96-well microtiter plate (produced by Corning Glass Works) were put each 50 μl/well of 4 x 10^5 cells/ml of D10.G4.1 cells, 2 x 10^6 cells/ml of MMC-treated antigen presenting cells, 400 μg/ml of conalbumin (produced by Sigma) as an antigen and the solution of the test compound in the tissue culture medium (to make 200 μl/well), and incubated in an incubator under 5% CO2 at 37°C for 48 hours. After completion of the incubation, the supernatant liquor of the culture was collected, and the cells were separated by centrifugation. The IL-5 in the supernatant liquor was determined with an IL-5 ELISA kit produced by ENDOGEN. […]

The next series relates to ICR male mice. In words: Oral toxicity (mortality) in mice. Particulars: orally administered to ICR male mice grouped in fives, dose level of 100 mg/kg. In kind it is in vivo. The source says: The compounds of Examples 1, 2, and 3 were orally administered to ICR male mice grouped in fives.
Series [2] concerns IL-5 production. Particulars: reported in Japanese Journal of Allergology, 44(3-2), p. 424 (1993); judged not sufficient by the patent; cited from earlier work.

pIC50: −log10 of the molar value.

By pIC50 is commonly meant the IC50 on a negative log10 scale, so that one unit is a factor of ten. A low value points to a large IC50.

Consider “6-O-Methylerythromycin A 9-[O-(2-Chlorophenylmethyl)oxime] [Compound of Example 1]”, for which the pIC50 with IL-5 production [1] was 6.57. For the same compound, the death entry in the series on ICR male mice is “No death was observed”.

As for “6-O-Methylerythromycin A 9-[O-(3-Methoxy-4-t-butylbenzyl)oxime] 11,12-Cyclic Carbonate [Compound of Example 2]”, in the series with IL-5 production [1], the pIC50 was 6.92. In addition, the death result with ICR male mice is “No death was observed”.

In turn, “11-Amino-9-N,11-N-cyclic ethylene-9-deoxo-11-deoxy-6-O-methylerythromycin A 9-Benzylamine 11-N,12-O-Cyclic Carbamate [Compound of Example 3]” had a pIC50 with IL-5 production [1] of 6.92. In the series with ICR male mice, the death entry was “No death was observed”.

`CC[C@H]1OC(=O)[C@H](C)[C@@H](O[C@H]2C[C@@](C)(OC)[C@@H](O)[C@H](C)O2)[C@H](C)[C@@H](O[C@@H]2O[C@H](C)C[C@H](N(C)C)[C@H]2O)[C@](C)(O)C[C@@H](C)C(=O)[C@H](C)[C@@H](O)[C@]1(C)O` [Erythromycin]: the “inhibitory activity on IL-5 production” value with IL-5 production [2] is “have an inhibitory activity on IL-5 production”.

Take `CC[C@H]1OC(=O)[C@H](C)[C@@H](O[C@H]2C[C@@](C)(OC)[C@@H](O)[C@H](C)O2)[C@H](C)[C@@H](O[C@@H]2O[C@H](C)C[C@H](N(C)C)[C@H]2O)[C@](C)(O)C[C@@H](C)/C(=N\OCOCCOC)[C@H](C)[C@@H](O)[C@]1(C)O` [Roxithromycin]: in the series on IL-5 production [2], the “inhibitory activity on IL-5 production” value is “have an inhibitory activity on IL-5 production”.

The record behind these values is patent publication EP0775489A1, “INTERLEUKIN-5 PRODUCTION INHIBITOR” (TAISHO PHARMACEUTICAL CO. LTD, priority 1994, dated 1996).
